Data as given in ChEMBL document CHEMBL1129522, “Inhibitors of acyl-CoA:cholesterol O-acyltransferase. 17. Structure-activity relationships of several series of compounds derived from N-chlorosulfonyl isocyanate” (J Med Chem, 1996).
Several values for one entry are separate records, joined by “and”; a condition that tells them apart may be missing. Identical values can stand only once.

Experiments:
[1] = target: T1, Sterol O-acyltransferase 1 (Rattus norvegicus, UniProt O70536); test: In vitro inhibitory activity against acyl coenzyme A:cholesterol acyltransferase 1 in microsomes of rat liver
T1 sequence (O70536 whole entry): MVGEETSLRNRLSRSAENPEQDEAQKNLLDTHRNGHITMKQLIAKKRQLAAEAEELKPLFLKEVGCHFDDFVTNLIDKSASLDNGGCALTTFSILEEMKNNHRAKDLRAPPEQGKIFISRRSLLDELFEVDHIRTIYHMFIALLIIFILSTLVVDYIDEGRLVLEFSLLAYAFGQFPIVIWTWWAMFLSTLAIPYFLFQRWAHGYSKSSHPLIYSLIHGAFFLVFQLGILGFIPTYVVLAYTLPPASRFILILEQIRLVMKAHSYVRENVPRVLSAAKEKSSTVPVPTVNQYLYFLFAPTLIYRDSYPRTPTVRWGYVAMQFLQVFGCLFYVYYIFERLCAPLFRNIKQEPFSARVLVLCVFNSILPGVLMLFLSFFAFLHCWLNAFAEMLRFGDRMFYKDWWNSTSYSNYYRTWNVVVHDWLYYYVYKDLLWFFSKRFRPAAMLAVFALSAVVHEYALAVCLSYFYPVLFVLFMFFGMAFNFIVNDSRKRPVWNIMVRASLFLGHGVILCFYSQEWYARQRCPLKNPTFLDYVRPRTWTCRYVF

[2] = target: T2, Sterol O-acyltransferase 1 (Rattus norvegicus) (UniProt O70536); test: Acute in vivo activity was measured by the total plasma cholesterol concentration levels(TC) at dose 3 mg/kg; format: functional, organism-based; design: dose 3 mg/kg
T2 sequence (whole entry): T1 sequence (O70536 whole entry)

[3] = system: Rattus norvegicus; test: Acute in vivo activity measured by total plasma cholesterol concentration levels (TC) at 30 mg/kg dose; format: functional

| Delta TC [2] | Structure (SMILES) | IC50 [1] | Delta TC [3] |
| --- | --- | --- | --- |
|  | COC(=O)NS(=O)(=O)Nc1c(C(C)C)cccc1C(C)C | > 100 µM |  |
|  | CCCCN(CCCC)S(=O)(=O)NC(=O)Nc1c(C(C)C)cccc1C(C)C [listing 1 of 2 here] | 0.53 µM |  |
|  | CC(C)(C)c1cccc(C(C)(C)C)c1OC(=O)NS(=O)(=O)Oc1c(C(C)(C)C)cccc1C(C)(C)C | 30 µM | -18% |
|  | CN(C(=O)Oc1c(C(C)(C)C)cccc1C(C)(C)C)S(=O)(=O)NC(c1ccccc1)c1ccccc1 | 4.6 µM |  |
| -8% | CCCCCCOS(=O)(=O)NC(=O)Nc1c(C(C)C)cccc1C(C)C | 27 µM |  |
|  | C=CCN(CC)S(=O)(=O)NC(=O)Nc1c(C(C)C)cccc1C(C)C | 2.1 µM |  |
|  | CC(C)c1cccc(C(C)C)c1NC(=O)NS(=O)(=O)N(CCCN(C)C)CCCN(C)C | 55 µM |  |
|  | Cc1cc(C(C)(C)C)c(OC(=O)NS(=O)(=O)N(C(C)C)C(C)C)c(C(C)(C)C)c1 | 3.2 µM |  |
|  | CC(C)c1cc([N+](=O)[O-])cc(C(C)C)c1OC(=O)NS(=O)(=O)Oc1c(C(C)C)cccc1C(C)C | > 50 µM | 18% |
|  | CC(C)c1cccc(C(C)C)c1OC(=O)NS(=O)(=O)Oc1c(F)cccc1F | 38 µM | 9% |
|  | COc1cc(OC)c(OC(=O)NS(=O)(=O)Oc2c(C(C)C)cccc2C(C)C)c(OC)c1 | > 25 µM | -5% |
|  | CCCCCCCCCCCCN(CCCCCCCCCCCC)S(=O)(=O)NC(=O)Nc1c(C(C)C)cccc1C(C)C | 69 µM | -5% |
|  | COc1cc(C(C)(C)C)c(OC(=O)NS(=O)(=O)Oc2c(C(C)C)cccc2C(C)C)c(C(C)(C)C)c1 | 4.8 µM | -72% |
|  | CC(C)c1cccc(C(C)C)c1OS(=O)(=O)NC(=O)Oc1c(F)cccc1F | 65 µM | -27% |
|  | CC(C)c1cccc(C(C)C)c1NC(=O)NS(=O)(=O)N1CCCC1 | 15 µM |  |
|  | CCCCN(CCCC)S(=O)(=O)NC(=O)Oc1c(C(C)C)cccc1C(C)C [listing 1 of 2 here] | 1.9 µM |  |
| -17% | CC(C)c1cccc(C(C)C)c1NC(=O)NS(=O)(=O)N1CCC(c2ccccc2)CC1 | 10.4 µM |  |
|  | CCCCCCCCCCOS(=O)(=O)NC(=O)Nc1c(C(C)C)cccc1C(C)C | > 10 µM |  |
|  | CC(C)c1cccc(C(C)C)c1NS(=O)(=O)NC(=O)N(Cc1ccccc1)Cc1ccccc1 | 16 µM |  |
|  | COC(=O)NS(=O)(=O)Oc1c(C(C)C)cccc1C(C)C | > 100 µM |  |
|  | CC(C)c1cccc(C(C)C)c1OC(=O)NS(=O)(=O)Oc1ccccc1 | > 50 µM | -26% |
|  | CC(C)c1cc(Br)cc(C(C)C)c1OC(=O)NS(=O)(=O)Oc1c(C(C)C)cccc1C(C)C | 31 µM | -29% |
|  | CC(C)c1cccc(C(C)C)c1OS(=O)(=O)NC(=O)Oc1c(F)c(F)c(F)c(F)c1F | 66 µM | -5% |

| Delta TC [2] | Structure (SMILES) | IC50 [1] | Delta TC [3] |
| --- | --- | --- | --- |
|  | CC(C)c1cccc(C(C)C)c1OS(=O)(=O)NC(=O)OC12CC3CC(CC(C3)C1)C2 | 13 µM | -10% |
|  | CC(C)c1cccc(C(C)C)c1NS(=O)(=O)NC(=O)Oc1c(-c2ccccc2)cccc1-c1ccccc1 | > 25 µM |  |
|  | CCCCCCC(C)OC(=O)NS(=O)(=O)Oc1c(C(C)C)cccc1C(C)C (configuration not stated) | 26 µM | -32% |
|  | CCCCCCCCCCN(CCCCCCCCCC)S(=O)(=O)NC(=O)Oc1c(C(C)(C)C)cc(C)cc1C(C)(C)C | 89 µM |  |
|  | CCCCCCNS(=O)(=O)NC(=O)Nc1c(C(C)C)cccc1C(C)C | 8.1 µM |  |
|  | CC(C)c1cccc(C(C)C)c1OC(=O)NS(=O)(=O)N1CCN(C)CC1 | > 100 µM |  |
|  | CCCCCCCCCCCCOS(=O)(=O)[N-]C(=O)Nc1c(C(C)C)cccc1C(C)C.[Na+] | 5 µM | -60% |
|  | CCCCN(CCCC)S(=O)(=O)NC(=O)Nc1c(C(C)C)cccc1C(C)C [listing 2 of 2 here] | 0.36 µM |  |
| -29% | CCCCN(CC)S(=O)(=O)NC(=O)Nc1c(C(C)C)cccc1C(C)C | 1.2 µM |  |
|  | CC(C)c1cccc(C(C)C)c1OS(=O)(=O)NC(=O)OC1CCCCC1 | 38 µM | -38% |
|  | Cc1cc(C(C)(C)C)c(OC(=O)NS(=O)(=O)N(C)CCc2ccccn2)c(C(C)(C)C)c1 [listing 1 of 2 here] | 31 µM |  |
|  | CC(C)c1cccc(C(C)C)c1OC(=O)[N-]S(=O)(=O)Oc1c(C(C)C)cccc1C(C)C.[Na+] |  | -74% |
|  | CCCCCCCCCCCCOS(=O)(=O)NC(=O)Sc1c(C(C)C)cccc1C(C)C | 48 µM | -9% |
|  | COc1cccc(OC)c1OC(=O)NS(=O)(=O)Oc1c(C(C)C)cccc1C(C)C [listing 1 of 2 here] | > 50 µM | -61% |
|  | CC(C)c1cccc(C(C)C)c1NC(=O)NS(=O)(=O)N(C)C | 3.9 µM |  |
|  | CCCCCCCCN(CCCCCCCC)S(=O)(=O)NC(=O)Oc1c(C(C)(C)C)cc(C)cc1C(C)(C)C | 2.7 µM |  |
|  | CC(C)c1cccc(C(C)C)c1OS(=O)(=O)NC(=O)OC1[C@H](C(C)C)CCC[C@H]1C(C)C (relative stereo) | 5.7 µM | -35% |
|  | CCCCCCCCCCCCOC(=O)NS(=O)(=O)Nc1c(C(C)C)cccc1C(C)C | 33 µM |  |
|  | CC(C)c1cccc(C(C)C)c1OC(=O)NS(=O)(=O)N1CCCCC1 | > 100 µM |  |
|  | CCCCN(CCCC)S(=O)(=O)N(C)C(=O)Nc1c(C(C)C)cccc1C(C)C | > 5 µM |  |
|  | CC(C)c1cccc(C(C)C)c1NC(=O)NS(=O)(=O)N1CCCCC1 | 17 µM |  |
| 2% | C=CCN(CC=C)S(=O)(=O)NC(=O)Nc1c(C(C)C)cccc1C(C)C | 2.7 µM |  |
|  | CCC(C)N(C(=O)NS(=O)(=O)Oc1c(C(C)C)cccc1C(C)C)C(C)CC (configuration not stated) | 12 µM | -20% |

| Delta TC [2] | Structure (SMILES) | IC50 [1] | Delta TC [3] |
| --- | --- | --- | --- |
| -17% | CCCCCCCCCCN(CCCCCCCCCC)S(=O)(=O)NC(=O)Nc1c(C(C)C)cccc1C(C)C | 0.72 µM |  |
|  | CC(C)c1cccc(C(C)C)c1OC(=O)NS(=O)(=O)Oc1c(C(C)C)cc(O)cc1C(C)C | > 50 µM | -15% |
|  | COc1cc(C(C)(C)C)c(OC(=O)[N-]S(=O)(=O)Oc2c(C(C)C)cccc2C(C)C)c(C(C)(C)C)c1.[Na+] | 10 µM | -60% |
|  | CC(C)c1ccc(OC(=O)NS(=O)(=O)Oc2c(C(C)C)cccc2C(C)C)c(C(C)C)c1 | > 50 µM | 6% |
|  | CC(C)c1cccc(C(C)C)c1OS(=O)(=O)NC(=O)Oc1cccnc1 | > 50 µM | -2% |
|  | CCOC(=O)NS(=O)(=O)Oc1c(C(C)C)cccc1C(C)C | > 50 µM | -14% |
|  | CC(C)c1cccc(C(C)C)c1OC(=O)NS(=O)(=O)Oc1c(C(C)C)cccc1C(C)C | 9.4 µM | -70% |
| -37% | CCCCN(C)S(=O)(=O)NC(=O)Nc1c(C(C)C)cccc1C(C)C | 2.3 µM |  |
|  | CC(C)NS(=O)(=O)NC(=O)Nc1c(C(C)C)cccc1C(C)C | 18 µM |  |
|  | CC(C)c1cccc(C(C)C)c1OS(=O)(=O)NC(=O)Oc1ccc(F)cc1 | > 50 µM | -21% |
|  | CCCCCN(CCCCC)S(=O)(=O)NC(=O)Oc1c(C(C)(C)C)cc(C)cc1C(C)(C)C | 2.2 µM |  |
| -18% | CCCCCCCCCCCCCCCCCCN(C)S(=O)(=O)NC(=O)Nc1c(C(C)C)cccc1C(C)C | 1.9 µM |  |
| -5% | CC(C)c1cccc(C(C)C)c1NS(=O)(=O)NC(=O)NC(c1ccccc1)c1ccccc1 | 30 µM |  |
|  | CCCCCCCCCCCCOS(=O)(=O)NC(=O)Nc1c(C(C)C)cccc1C(C)C | 6.8 µM |  |
|  | Cc1cc(C(C)(C)C)c(OC(=O)NS(=O)(=O)N(C)CCc2ccccn2)c(C(C)(C)C)c1 [listing 2 of 2 here] | 31 µM |  |
|  | CCN(CC)S(=O)(=O)NC(=O)Nc1c(C(C)C)cccc1C(C)C | 2.5 µM |  |
|  | CC(C)c1cccc(C(C)C)c1OC(=O)NS(=O)(=O)N1CCOCC1 | > 100 µM |  |
|  | CCCCCCN(CCCCCC)S(=O)(=O)NC(=O)Oc1c(C(C)(C)C)cc(C)cc1C(C)(C)C | 4.3 µM |  |
|  | CCCCCCCCCCCCOC(=O)NS(=O)(=O)Nc1c(OC)cc(OC)cc1OC | 30 µM |  |
|  | CCCCN(CCCC)S(=O)(=O)NC(=O)Oc1c(C(C)(C)C)cc(C)cc1C(C)(C)C | 3.2 µM |  |
|  | Cc1cc(C(C)(C)C)c(OC(=O)NS(=O)(=O)N(CC2CCCO2)CC2CCCO2)c(C(C)(C)C)c1 (configuration not stated) | 21 µM |  |
| -48% | CCCCCCCCCCC(C)OS(=O)(=O)NC(=O)Nc1c(C(C)C)cccc1C(C)C (configuration not stated) |  |  |
|  | CCCCN(CCCC)S(=O)(=O)NC(=O)Oc1c(C(C)C)cccc1C(C)C [listing 2 of 2 here] | 1.9 µM |  |

| Structure (SMILES) | Delta TC [2] | IC50 [1] | Delta TC [3] |
| --- | --- | --- | --- |
| CCCCCCCCN(C)S(=O)(=O)NC(=O)Oc1c(C(C)(C)C)cc(C)cc1C(C)(C)C | 1% | 18 µM |  |
| CCCCCCNS(=O)(=O)NC(=O)Oc1c(C(C)(C)C)cc(C)cc1C(C)(C)C | -10% | 19.4 µM |  |
| CC(C)c1cccc(C(C)C)c1OC(=O)NS(=O)(=O)N1CCc2ccccc21 | -31% | 43 µM |  |
| COc1cccc(OC)c1OC(=O)NS(=O)(=O)Oc1c(C(C)C)cccc1C(C)C [listing 2 of 2 here] | -12% and -4% |  |  |
| COc1cc(C(C)(C)C)c(OC(=O)NS(=O)(=O)NCC(c2ccccc2)c2ccccc2)c(C(C)(C)C)c1 | -15% | 82 µM |  |
| CC(C)c1cccc(C(C)C)c1OC(=O)NS(=O)(=O)N1CCCC1 | -4% | 53 µM |  |
| CCCCCCNS(=O)(=O)NC(=O)Oc1c(C(C)C)cccc1C(C)C | -12% | 21 µM |  |
| CC(C)c1cccc(C(C)C)c1OC(=O)NS(=O)(=O)N(Cc1ccccc1)Cc1ccccc1 | -17% | 20 µM |  |
